Measurements from publication PMC7005452 (Heliyon, 2020).
Like-named read-outs stand apart in the source and are kept apart here.

What was measured:
CCNB1 (cyclin B1) = test: Real-time PCR, cyclin B1 mRNA expression in HEK293 cells; type: cell-based, human; conditions: HEK293, 48 h, MB 4.4 mM, EB 1.7 mM, VB 1.7 mM, ACTIN reference
Protocol: (§1) HEK293 and SH-SY5Y cells were grown to 60–70% confluence in 6 well plates and the media were exchanged with the ones including the chemicals, MB, EB, or VB in the given concentrations. After 48 h incubation, the cells were washed with cold PBS once and scraped. The cells were washed again with cold PBS twice before extracting total RNA molecules using Qiagen RNeasy kit. cDNAs were constructed from 600 ng of the collected RNAs using Reverse Transcription System (Promega, Japan). cDNA was analyzed through real-time quantifying PCR using SYBR Green Realtime PCR Master Mix (Toyobo, Japan) according to the manufacturer's instructions (CFX96 Touch Real-time PCR System, Bio-Rad).
(§2) Further, we prompted to assess whether the gene expression of cell cycle and stress regulators such as cyclins and HSP70 is affected by MB, EB, and VB. These chemicals were applied to the HEK293 or SH-SY5Y cells at the concentrations of 4.4 mM [0.06% MB, 0.05% (3.7 mM) for SH-SY5Y cells], 1.7 mM (0.025%, EB), and 1.7 mM (0.025%, VB), respectively, for 48 h before extracting the total RNAs from the cells. The concentrations were chosen based on the LC50 values, approximately a third of the values, that would not cause cell death but could influence the gene expression in the tested cells. mRNAs of HSP70, CCNB1 (cyclin B1), and CCND1 (cyclin D1) were quantified by real-time PCR with ACTIN as a reference gene. Cyclin B1 is a checkpoint regulator for S/G2 transition, whereas cyclin D1 is for G1 progression ([Baldin et al., 1993]; [Hwang et al., 1995]). […] The mRNA expression of HSP70, a stress-inducible gene ([Huang et al., 2001]), decreased in MB-, EB-, and VB-treated HEK293 cells, and VB-treated samples showing the least expression (Figure 4A). […] For SH-SY5Y cells, we also measured the mRNA expression of AChE, acetylcholinesterase gene ([Dvir et al., 2010]), because of the similar structure of these chemicals to methylparaben ([Nathan and Sears, 1961]) and of the fact that MB has been reported to have a repellent effect against some insect pests such as Bemisia tabaci (Gennadius) ([Mostafiz et al., 2018]).

[1] = system: AChE, acetylcholinesterase gene; test: Real-time PCR, AChE mRNA expression in SH-SY5Y cells; type: cell-based, human; conditions: 48 h, MB 3.7 mM, EB 1.7 mM, VB 1.7 mM
Protocol: as §1, §2

[2] = WST-1 cytotoxicity / cell viability assay; type: cell-based, human; conditions: human, SH-SY5Y cells, log-probit on percentage mortality, read-out: LC50
Protocol: (§3) Human embryonic kidney 293 (HEK293) and CACO2 cells were purchased from ATCC. Cells were cultured in DMEM (Corning, USA) supplemented with 10% FBS (Gibco, USA) and 1% penicillin/streptomycin (Gibco, USA). SH-SY5Y cells were gifted by Dr. Dong-Hyung Cho's laboratory in the Dept. of Life Science at Kyungpook National University and were grown in DMEM with high glucose (Gibco, USA). Cells were grown to 80–90% confluence in a 10 cm plate before splitting into a 96 well plate. […] After 48 h incubation, 10% (v/v) of water soluble tetrazolium salt (WST, DoGen Inc., South Korea) was added to each well, following the manufacturer's instruction. Orange color development for enzyme-substrate reaction was monitored, using spectrophotometry at 450 nm (Tecan Sunrise, Switzerland).
(§4) One-way ANOVA, followed by a post-hoc Tukey's HSD test, was used to determine differences in toxicity, and repellency percentages (P < 0.05) (SAS for Window release 6, SAS Institute). All percentage mortality data were corrected using Abbott's formula ([Abbott, 1987]). […] Adult repellency percentage was calculated using the formula PR (%) = [(C-T)/(C + T)] × 100 ([Liu et al., 2013]). All analyses were performed in SAS version 9.4. All the graphs were drawn with SigmaPlot 12.5 (Systat Software, Inc., San Jose, CA, USA).
(§5) It has also been used as a preservative for cosmetic products. In addition, it was reported that methylparaben is a chemical compound present in local anesthetic that can alter the function of the human nervous system ([Nathan and Sears, 1961]).

SH-SY5Y cells = test: WST-1 cytotoxicity / cell viability assay; type: cell-based, human
Protocol: as §3, §4, §5

HEK293 cells = test: WST-1 cytotoxicity / cell viability assay; type: cell-based, human
Protocol: as §3, §4
(§6) As the safety of agricultural products and foods became a major concern and issue in the modern society, validating the effects of pesticides on human physiology and setting the safety limits of their use is important ([Fan and Jackson, 1989]; [Kim et al., 2017]). […] WST-1 is a substrate of mitochondrial dehydrogenases and is converted to a colored dye called formazan in viable cells. Because the intensity of dye is proportional to the amount of enzyme, WST-1 reagent cell proliferation assay is widely used to measure the cell viability ([Ngamwongsatit et al., 2008]).

[3] = WST-1 cytotoxicity / cell viability assay; type: cell-based, human; conditions: human, HEK293 cells, log-probit on percentage mortality, read-out: LC50
Protocol: as §3, §4, §6

[4] = system: HSP70, CCNB1 (cyclin B1), and CCND1 (cyclin D1); test: Real-time PCR, HSP70, CCNB1 and CCND1 mRNA expression in SH-SY5Y cells; type: cell-based, human; conditions: 48 h, MB 3.7 mM, EB 1.7 mM, VB 1.7 mM
Protocol: as §1, §2

HSP70 [5] = test: Real-time PCR, HSP70 mRNA expression in HEK293 cells; type: cell-based, human; conditions: HEK293, 48 h, MB 4.4 mM, EB 1.7 mM, VB 1.7 mM, ACTIN reference
Protocol: as §1, §2

CACO2 cells = test: WST-1 cytotoxicity / cell viability assay; type: cell-based, human; conditions: for reduction in CACO2 cells in the WST-1 assay: acetone-T20 solvent
Protocol: as §3, §4
(§7) Ingested residual pesticides from agricultural foods may stay in the colon for a longer time than any other organs.

[6] = WST-1 cytotoxicity / cell viability assay; type: cell-based, human; conditions: human, CACO2 cells; CACO2, WST assay, log-probit on percentage mortality; read-out: LC50
Protocol: as §3, §4, §7

[7] = Visual observation of aggregates in cell culture media; type: physicochemical; conditions: MB higher than 5.5 mM (0.075%) applied to the media; persisted with T20
Protocol: Therefore, we aimed to identify an upper limit of MB concentration between 0.1 and 11 mM (0.001% and 0.15%) where the growth of HEK293 cells was less affected. Seven MB concentrations, 0, 0.1, 0.7, 3.7, 5.5, 7.0, 11 mM (0%, 0.001%, 0.01%, 0.05%, 0.075%, 0.1%, and 0.15%), were applied to HEK293 cells and the WST-1 experiment was performed. […] This might be because of the hydrophobicity of MB which causes it to form aggregates facilitated by the aqueous condition in the cell culture media. […] The WST-1 data were similar to the results without T20, except for 5.5 mM MB. […] We attributed the increased sensitivity of MB concentration 5.5 mM (0.075%) in the acetone-T20 solvent to the synergistic cytotoxic effect in the presence of the detergent, T20 with MB or the enhanced solubility of MB.

[8] = Crystal violet cell staining assay; type: cell-based; conditions: human, HEK293 cells, in agreement with WST-1, read-out: upper limit of MB concentration for HEK293 cell viability
Protocol: For the crystal violet experiment, cells were split into a 96 well and MB was applied to each well as described above and then HEK293 cells were grown for 1–2 days and CACO2 cells for 4–5 days. Crystal violet staining method published by M. [Feoktistova et al., (2016)] was used without modifications. The resultant plate was taken picture of. In addition, the stained cells were dissolved in methanol and the intensity of color was measured at 595 nm (Tecan Sunrise, Switzerland).

CCND1 (cyclin D1) = test: Real-time PCR, cyclin D1 mRNA expression in HEK293 cells; type: cell-based, human; conditions: HEK293, 48 h, VB 1.7 mM, ACTIN reference
Protocol: as §1
Further, we prompted to assess whether the gene expression of cell cycle and stress regulators such as cyclins and HSP70 is affected by MB, EB, and VB. These chemicals were applied to the HEK293 or SH-SY5Y cells at the concentrations of 4.4 mM [0.06% MB, 0.05% (3.7 mM) for SH-SY5Y cells], 1.7 mM (0.025%, EB), and 1.7 mM (0.025%, VB), respectively, for 48 h before extracting the total RNAs from the cells. The concentrations were chosen based on the LC50 values, approximately a third of the values, that would not cause cell death but could influence the gene expression in the tested cells. mRNAs of HSP70, CCNB1 (cyclin B1), and CCND1 (cyclin D1) were quantified by real-time PCR with ACTIN as a reference gene. […]

HSP70 [9] = test: Western blot, HSP70 protein level in HEK293 cells; type: cell-based, human; conditions: HEK293, VB 1.7 mM (250 ppm), α-Tubulin loading control
Protocol: HEK293 cells grown in 6 well plates for Western blots and SDS polyacrylamide gel electrophoresis (SDS-PAGE) were washed with cold PBS twice and scraped in RIPA buffer (Cell Signaling, Cat. 9806, USA). Protein concentration in each sample was measured through Bradford assay using Bio-Rad Protein Assay Dye Reagent Concentrate (Bio-Rad #5000006) and spectrophotometry at 595 nm (Tecan Sunrise™ Absorbance Microplate Reader, Switzerland). From the measured protein concentration, a total of 15 μg of proteins per each sample were loaded on 7% SDS-PA gels, blotted onto nitrocellulous membrane, and probed for HSP70 and α-Tubulin using corresponding antibody (HSP70, Santa Cruz sc-32239; α-Tubulin, Santa Cruz sc-8035) in Western blot assay.
Further, we prompted to assess whether the gene expression of cell cycle and stress regulators such as cyclins and HSP70 is affected by MB, EB, and VB. […] The concentrations were chosen based on the LC50 values, approximately a third of the values, that would not cause cell death but could influence the gene expression in the tested cells. mRNAs of HSP70, CCNB1 (cyclin B1), and CCND1 (cyclin D1) were quantified by real-time PCR with ACTIN as a reference gene. […]

[10] = log-probit on percentage mortality
[11] = log-probit on percentage mortality, read-out: LC50 (the source's name)

SMILES | cyclin B1 mRNA expression compared with solvent control (CCNB1 (cyclin B1)) | AChE mRNA expression [1] | CC50 at 48 h [2] [mM] | LC50 (SH-SY5Y cells; [10]) [%] | LC50 (HEK293 cells; [10]) [%] | CC50 at 48 h [3] [mM] | mRNA expression of HSP70, CCNB1 and CCND1 [4] | HSP70 mRNA expression compared with solvent control (HSP70 [5]) | reduction in CACO2 cells in the WST-1 assay (CACO2 cells; CACO2, MB 3.7 mM (0.05%)) | reduction in CACO2 cells in the WST-1 assay (CACO2 cells; CACO2, MB 7.3 mM (0.1%)) [%] | LC50 (CACO2 cells; CACO2, WST assay, log-probit on percentage mortality) [%] | CC50 at 48 h [6] [mM] | aggregate formation in cell culture media [7] | viability [8] [%] | cyclin D1 mRNA expression compared with solvent control (CCND1 (cyclin D1)) | HSP70 protein level (HSP70 [9]) | relative toxicity among MB, EB and VB (SH-SY5Y cells) | CC50 (SH-SY5Y cells; [11]) [mM] | relative toxicity among MB, EB and VB (HEK293 cells) | CC50 (HEK293 cells; [11]) [mM]
CCOC(=O)c1ccccc1 [EB, ethyl benzoate] | rarely differentiated | hardly any change | 7.3 | 0.11 | 0.104 | 6.9 | did not display notable differential expressions | decreased | – | – | – | – | – | – | – | – | – | – | – | –
COC(=O)c1ccccc1 [MB, Methyl benzoate] | rarely differentiated | hardly any change | 11 | 0.15 | 0.18 | 13.2 | did not display notable differential expressions | decreased | about 30% | > 90 | 0.28 | 20.6 | formed silver-colored aggregates | ≤ 0.05 | – | – | – | – | – | –
C=COC(=O)c1ccccc1 [VB, vinyl benzoate] | rarely differentiated | mild increase | – | 0.09 | 0.08 | – | did not display notable differential expressions | decreased | – | – | – | – | – | – | noticeable reduction | consistently decreased | most toxic | 6.1 | most toxic | 5.4
